Data published in US20210180095A1 (SHELL OIL COMPANY, priority 2017, published 2021).
Blank lines part the entries; values can stand above or below the molecule they belong to.

Legend:
[1] = molecular target: T1, P. thermopropionicum HmfF (Pelotomaculum thermopropionicum, UniProt A5D4Z9); details: substrate specificity
Description: Subsequently, HmfF was purified and assayed under anaerobic conditions. […] All subsequent assays were performed at 50° C.

[2] = system: P. thermopropionicum HmfF H297F variant; assay: Reconstituted holo-PtHmfF decarboxylation assay (FIG. 7), H297F variant; type: biochemical, Pelotomaculum thermopropionicum; details: 1 mM substrate
Description: (§1) Mutagenesis primers were designed using the QuikChange® Primer Design Program (http://www.genomics.agilent.com/primerDesignProgram.jsp). PCR was performed using Phusion polymerase (NEB). Template was removed by DpnI (NEB) digest and the PCR product transformed into E. coli NEB5-alpha. Once the presence of the desired mutation was confirmed by DNA sequencing, the plasmid was transformed into E. coli BL21(DE3). The three variants transformed into E. coli BL21(DE3) includes one with a mutation of H297N, a second with H297F, and a third of R305Q.
(§2) Protein was expressed in BL21(DE3) grown at 37° C./180 rpm in LB broth supplemented with 50 μg/ml ampicillin At mid-log phase cells were induced with 0.25 mM IPTG and grown overnight at 15° C./180 rpm and then harvested by centrifugation (4° C., 7000 g for 10 minutes). Cell pellets were resuspended in buffer A (200 mM KCl, 1 mM MnCl2, 50 mM Tris pH 7.5) supplemented with DNase, RNase, lysozyme (Sigma) and Complete EDTA-free protease inhibitor cocktail (Roche). Cells were lysed using a French press at 1500 psi and the lysate incubated at 50° C. for 30 minutes to precipitate host proteins. The lysate was clarified by centrifugation at 125,000 g for 90 minutes. […]

[3] = system: P. thermopropionicum HmfF R305Q variant; assay: Reconstituted holo-PtHmfF decarboxylation assay (FIG. 7), R305Q variant; type: biochemical, Pelotomaculum thermopropionicum; details: 1 mM substrate
Description: as §1, §2

[4] = system: P. thermopropionicum HmfF wild-type (WT); assay: Reconstituted holo-PtHmfF decarboxylation assay (FIG. 7), wild-type; type: biochemical, Pelotomaculum thermopropionicum; details: 1 mM substrate; for observed kcat (decarboxylation activity): pH6, 50° C., anaerobic
Description: Reconstitution and Assays were performed anaerobically within a 100% N2-atmosphere glove box (Belle Technology, UK).
Holo-PtHmfF (e.g., an enzyme with its cofactors) was obtained by reconstituting single expressed HmfF with reduced prFMN under anaerobic conditions as described previously for the UbiD from E. coli in Marshall, S. A., Fisher, K., Ni Cheallaigh, A., White, M. D., Payne, K. A., Parker, D. A., Rigby, S. E., and Leys, D. (2017) Oxidative Maturation and Structural Characterization of Prenylated FMN Binding by UbiD, a Decarboxylase Involved in Bacterial Ubiquinone Biosynthesis. The Journal of biological chemistry 292, 4623-4637. In general, a reaction consisting of 1 mM FMN, 2 mM DMAP (Sigma), 50 μM Fre reductase and 50 μM UbiX in buffer A was started by the addition of 5 mM NADH. Following incubation, the reaction mixture was filtered through 10 k MWCO centrifugal concentrator to remove UbiX and Fre proteins. The filtrate containing the prFMN product was used to reconstitute anaerobic apo-HmfF (e.g., an enzyme without its cofactors) in a 2:1 molar ratio, with excess cofactor being removed using a PD25 desalting column (GE Healthcare). Use of holo-PtHmfF ensures the activity observed in the enzymatic activity assay below is minimally impacted by the presence or absence of cofactors.
Assays were performed by UV-vis spectroscopy using a Cary 50 Bio spectrophotometer (Varian).

[5] = system: G. kaustophilus HmfF; assay: HmfF carboxylation reactions assayed by HPLC; type: biochemical, Geobacillus kaustophilus; details: 50 mM furoic acid, 3 M ammonium bicarbonate, 50° C. overnight
Description: (§3) […] The sample was centrifuged at 16100 g to remove precipitate and […] added to 980 μl 50% v/v H2O/acetonitrile. Sample analysis was performed using an Agilent 1260 Infinity Series HPLC equipped with a UV detector. The stationary phase was a Kinetex […] C18 100A column, 250×4.6 mm The mobile phase was acetonitrile/water (50/50) with 0.1% TFA at a flow rate of 1 ml/min, and unless otherwise stated detection was performed at a wavelength of 265 nm.

[6] = molecular target: T1, P. thermopropionicum HmfF; assay: HmfF carboxylation reactions assayed by HPLC; type: biochemical; details: 50 mM furoic acid, 3 M ammonium bicarbonate, 50° C. overnight
Description: as §3

[7] = Effect of pH, temperature and oxygen on HmfF decarboxylation activity (UV-vis)

Molecule: O=C(O)/C=C/C=C/C(=O)O [muconic acid]
decarboxylation by purified P. thermopropionicum HmfF [1]: no decarboxylation detected

Molecule: O=C(O)c1ccc(C(=O)O)cc1 [terephthalic acid]
decarboxylation by purified P. thermopropionicum HmfF [1]: no decarboxylation detected

Molecule: O=C(O)c1ccc(C(=O)O)o1 [FDCA, 2,5-furandicarboxylic acid]
decarboxylation activity [2]: did not exhibit any measurable decarboxylation activity
decarboxylation by purified P. thermopropionicum HmfF [1]: capable of decarboxylating
decarboxylation activity [3]: did not exhibit any measurable decarboxylation activity
observed kcat (decarboxylation activity) [4]: greater than 4 kcat/s

Molecule: O=C(O)c1ccc(C(=O)O)[nH]1 [PDCA, 2,5-pyrrol-dicarboxylic acid]
decarboxylation activity [2]: did not exhibit any measurable decarboxylation activity
decarboxylation activity [3]: did not exhibit any measurable decarboxylation activity
decarboxylation activity relative to the activity for FDCA [4]: about 2.5%
observed kcat (decarboxylation activity) [4]: less than 0.1 kcat/s

Molecule: O=C(O)c1ccco1 [furoic acid]
decarboxylation by purified P. thermopropionicum HmfF [1]: could not further decarboxylate
carboxylation of furoic acid to FDCA (HPLC peak) [5]: co-migrates with an FDCA standard
carboxylation of furoic acid to FDCA (HPLC peak) [6]: co-migrates with an FDCA standard

Molecule: O=C(O)c1cccc(C(=O)O)n1 [2,6-pyridinedicarboxylic acid]
decarboxylation by purified P. thermopropionicum HmfF [1]: no decarboxylation detected

Molecule: O=C(O)c1cccc(C(=O)O)c1 [isophthalic acid]
decarboxylation by purified P. thermopropionicum HmfF [1]: no decarboxylation detected

B1: P. thermopropionicum HmfF: HmfF enzyme (2,5-furandicarboxylic acid decarboxylase) of SEQ ID NO:1 from the thermophilic bacterium Pelotomaculum thermopropionicum (protein, listed as Pelotomaculum thermopropionicum)
chain: MSHSLREWLAFLEGKGKLKRVRKEVDPVFEIAALGKQADGICSLLFERVKGYAVPVVTGLAGDRELFAAAMSVPVEGMLEKLAAAVENPVPCRLVSPDGAPVKECIIRENIDLLKMLPIPTHHAGDAGPYITAAILIARDPDSGVRNVSIHRLQVTGPDRLGILILPRHLWHFFGKAERAGRPLEIALAIGVHPAVLLASQATTRLGVDELEIASALLPQPLELVKCETVDVEVPAGAEIVIEGKILPGVREVEGPFGEYPRYYGPAAPRPVVEVTAVTHRRQPVYHTIIPASREHLLLGGIAREAVLLQTVRQAVPTVKNVHLTPGGSCRYHAVISIEKKHEGEAKNAIFAAFTSSSEVKHVVVVDHEINIFDPEEVEWAVATRCQAGRDVFIVKDAMGNRLDPSSRDGVSDKMGIDATIPLNLPGERFERISIPGLDKIKLADYLE
activation energy ([7]; Arrhenius plot of the 25° C.-50° C. data points): 80.7 kJ/mol
temperature maximum of enzyme activity ([7]; FDCA decarboxylation, anaerobic): ~60 °C

Further lines, results first:

decarboxylation by purified P. thermopropionicum HmfF [1]: no decarboxylation detected
Molecule: O=C(O)c1ccc(C(=O)O)s1 [2,5-thiophenedicarboxylic acid]

decarboxylation by purified P. thermopropionicum HmfF [1]: no decarboxylation detected
Molecule: O=C(O)c1ccc([N+](=O)[O-])o1 [5-nitro-2-furoic acid]

decarboxylation by purified P. thermopropionicum HmfF [1]: no decarboxylation detected
Molecule: O=C(O)c1ccc(CO)o1 [5-hydroxymethyl-2-furoic acid]

decarboxylation by purified P. thermopropionicum HmfF [1]: no decarboxylation detected
Molecule: O=C(O)c1ccoc1C(=O)O [2,3-furandicarboxylic acid]
